Reference: ChEMBL document CHEMBL1201862, “PubChem BioAssay data set” (2004)
The source made the active and inactive calls.

Legend:
[1] = P. falciparum Dd2 growth inhibitors, dose response, SYBR Green, cherry-picked samples (AID 1159567); format: functional, cell-based
[2] = target: T1, Protein skinhead-1 (Caenorhabditis elegans, UniProt P34707); format: functional
T1 sequence (P34707 whole entry): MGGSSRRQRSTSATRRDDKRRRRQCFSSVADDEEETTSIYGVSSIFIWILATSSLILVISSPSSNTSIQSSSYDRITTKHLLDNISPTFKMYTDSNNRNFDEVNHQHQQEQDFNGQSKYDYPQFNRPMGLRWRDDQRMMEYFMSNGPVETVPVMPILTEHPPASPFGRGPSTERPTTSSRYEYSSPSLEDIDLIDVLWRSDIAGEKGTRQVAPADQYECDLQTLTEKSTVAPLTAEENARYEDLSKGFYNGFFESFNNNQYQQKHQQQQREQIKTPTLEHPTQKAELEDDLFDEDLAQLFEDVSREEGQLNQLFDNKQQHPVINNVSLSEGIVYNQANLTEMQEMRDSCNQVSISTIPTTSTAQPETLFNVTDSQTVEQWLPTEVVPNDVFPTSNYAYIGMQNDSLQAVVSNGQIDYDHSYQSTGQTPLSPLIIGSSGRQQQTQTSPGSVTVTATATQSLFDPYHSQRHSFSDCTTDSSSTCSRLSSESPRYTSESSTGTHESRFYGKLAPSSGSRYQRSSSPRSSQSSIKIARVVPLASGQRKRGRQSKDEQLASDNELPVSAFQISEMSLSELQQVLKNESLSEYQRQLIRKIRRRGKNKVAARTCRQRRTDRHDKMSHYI

[3] = system: H4; test: Luminescence Cell-Based Dose Response HTS to Identify Activators of 5'UTR Stem-Loop Driven Prion Protein mRNA Translation in H4 Neuroglioblastoma Cells. [Related pubchem assays: 1829 (Project Summary), 1814 (Primary HTS)]; format: functional; conditions: Homo sapiens
[4] = Luminescence Cell-Based Dose Confirmation HTS to Identify Activators of 5'UTR Stem-Loop Driven Alpha-Synuclein mRNA Translation in H4 Neuroglioblastoma Cells. [Related pubchem assays: 1829 (Project Summary), 1814 (Primary HTS)]; format: functional
[5] = Luminescence Cell-Based Dose Response HTS to Identify Activators of Luciferase Translation or Activity in H4 […] Cells. [Related pubchem assays: 1829 (Project Summary), 1814 (Primary HTS)]; format: functional
[6] = system: SN12K1; test: cells; format: functional; conditions: Homo sapiens
[7] = system: P388/ADR; test: cells; format: functional
[8] = system: P388; test: cells; format: functional
[9] = growth suppression of beta-catenin-knockout colon cells, dose response, cell-based, HCT116, human colon tumor (AID 1045); format: functional;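 further: HCT116 colon tumor cells with beta catenin knocked out; cells exposed to compound for 60 hours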
[10] = growth suppression of PTEN-null colon cells, dose response, cell-based, HCT116 PTEN knockout (AID 1047); format: functional;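 further: HCT116 colon tumor cells with PTEN knocked out; cells exposed to compound for 60 hours before readout; potency for loss of cell viability measured by luminescence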
[11] = target: T2, Fatty acid synthase (Homo sapiens, UniProt P49327); test: FAS thioesterase domain inhibitors, dose response, biochemical, kinetic fluorescence intensity (AID 624326); format: functional;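 further: rate of fluorescence rise from hydrolysis of a fluorogenic O-methyl fluorescein ester substrate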
[12] = control 3'UTR Renilla luciferase suppression, dose response, counter-screen for Shn3 inhibitor project, cell-based, Clone20-Shn3RL, cherry-picked (AID 624133); format: functional
[13] = HepG2 cell cytotoxicity, dose response, cytotoxicity control for Shn3 inhibitor project, CellTiter-Glo, cherry-picked (AID 624134); format: functional, cell-based
[14] = target: T2, Fatty acid synthase; test: FAS thioesterase domain inhibitors, dose response, biochemical, endpoint fluorescence intensity, uHTS hits (AID 624327); format: functional;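 further: fluorescence from hydrolysis of an O-methyl fluorescein acyl ester substrate by the enzyme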
[15] = Shn3 3'UTR reporter inhibitors, dose response, cell-based, Clone20 osteoblasts, firefly luciferase, cherry-picked (AID 624132); format: functional;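 further: firefly luciferase luminescence from reporter carrying the Shn3 3'UTR in osteoblasts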
[16] = system: Streptococcus; test: Group A Streptococcus viability loss, dose response, counter-screen for streptokinase expression inhibitor project, luminescence, BacTiterGlo (AID 1915); format: functional, organism-based;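 further: potency for reduction of bacterial viability or growth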
[17] = target: T3, Streptokinase A (Streptococcus pyogenes serotype M1, UniProt P10520); test: S. pyogenes streptokinase expression inhibitors, potency, dose response, plasminogen activation absorbance, OD405 (AID 1914); format: functional, Streptococcus pyogenes M1 GAS;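 further: secreted streptokinase activity via plasminogen activation per viability signal from cell pellet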
T3 sequence (P10520 whole entry): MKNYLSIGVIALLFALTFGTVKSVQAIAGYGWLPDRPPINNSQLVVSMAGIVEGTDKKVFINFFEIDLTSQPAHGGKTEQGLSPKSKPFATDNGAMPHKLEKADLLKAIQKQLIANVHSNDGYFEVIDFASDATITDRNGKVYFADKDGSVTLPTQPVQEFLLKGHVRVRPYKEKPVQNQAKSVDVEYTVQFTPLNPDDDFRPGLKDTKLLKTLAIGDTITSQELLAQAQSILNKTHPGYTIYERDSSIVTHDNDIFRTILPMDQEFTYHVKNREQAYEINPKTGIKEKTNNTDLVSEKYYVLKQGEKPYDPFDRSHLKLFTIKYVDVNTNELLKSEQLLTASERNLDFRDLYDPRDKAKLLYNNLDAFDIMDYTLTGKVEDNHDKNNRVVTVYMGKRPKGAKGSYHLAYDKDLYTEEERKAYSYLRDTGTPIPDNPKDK

[18] = system: Streptococcus sp. 'group A'; test: growth inhibition of control SK(-) GAS strain, dose response, counter-screen for streptokinase expression inhibitor project, luminescence, kanamycin, BacTiterGlo, confirmation (AID 1900); format: functional, organism-based

T2 sequence (P49327 whole entry, the tested form may be a part): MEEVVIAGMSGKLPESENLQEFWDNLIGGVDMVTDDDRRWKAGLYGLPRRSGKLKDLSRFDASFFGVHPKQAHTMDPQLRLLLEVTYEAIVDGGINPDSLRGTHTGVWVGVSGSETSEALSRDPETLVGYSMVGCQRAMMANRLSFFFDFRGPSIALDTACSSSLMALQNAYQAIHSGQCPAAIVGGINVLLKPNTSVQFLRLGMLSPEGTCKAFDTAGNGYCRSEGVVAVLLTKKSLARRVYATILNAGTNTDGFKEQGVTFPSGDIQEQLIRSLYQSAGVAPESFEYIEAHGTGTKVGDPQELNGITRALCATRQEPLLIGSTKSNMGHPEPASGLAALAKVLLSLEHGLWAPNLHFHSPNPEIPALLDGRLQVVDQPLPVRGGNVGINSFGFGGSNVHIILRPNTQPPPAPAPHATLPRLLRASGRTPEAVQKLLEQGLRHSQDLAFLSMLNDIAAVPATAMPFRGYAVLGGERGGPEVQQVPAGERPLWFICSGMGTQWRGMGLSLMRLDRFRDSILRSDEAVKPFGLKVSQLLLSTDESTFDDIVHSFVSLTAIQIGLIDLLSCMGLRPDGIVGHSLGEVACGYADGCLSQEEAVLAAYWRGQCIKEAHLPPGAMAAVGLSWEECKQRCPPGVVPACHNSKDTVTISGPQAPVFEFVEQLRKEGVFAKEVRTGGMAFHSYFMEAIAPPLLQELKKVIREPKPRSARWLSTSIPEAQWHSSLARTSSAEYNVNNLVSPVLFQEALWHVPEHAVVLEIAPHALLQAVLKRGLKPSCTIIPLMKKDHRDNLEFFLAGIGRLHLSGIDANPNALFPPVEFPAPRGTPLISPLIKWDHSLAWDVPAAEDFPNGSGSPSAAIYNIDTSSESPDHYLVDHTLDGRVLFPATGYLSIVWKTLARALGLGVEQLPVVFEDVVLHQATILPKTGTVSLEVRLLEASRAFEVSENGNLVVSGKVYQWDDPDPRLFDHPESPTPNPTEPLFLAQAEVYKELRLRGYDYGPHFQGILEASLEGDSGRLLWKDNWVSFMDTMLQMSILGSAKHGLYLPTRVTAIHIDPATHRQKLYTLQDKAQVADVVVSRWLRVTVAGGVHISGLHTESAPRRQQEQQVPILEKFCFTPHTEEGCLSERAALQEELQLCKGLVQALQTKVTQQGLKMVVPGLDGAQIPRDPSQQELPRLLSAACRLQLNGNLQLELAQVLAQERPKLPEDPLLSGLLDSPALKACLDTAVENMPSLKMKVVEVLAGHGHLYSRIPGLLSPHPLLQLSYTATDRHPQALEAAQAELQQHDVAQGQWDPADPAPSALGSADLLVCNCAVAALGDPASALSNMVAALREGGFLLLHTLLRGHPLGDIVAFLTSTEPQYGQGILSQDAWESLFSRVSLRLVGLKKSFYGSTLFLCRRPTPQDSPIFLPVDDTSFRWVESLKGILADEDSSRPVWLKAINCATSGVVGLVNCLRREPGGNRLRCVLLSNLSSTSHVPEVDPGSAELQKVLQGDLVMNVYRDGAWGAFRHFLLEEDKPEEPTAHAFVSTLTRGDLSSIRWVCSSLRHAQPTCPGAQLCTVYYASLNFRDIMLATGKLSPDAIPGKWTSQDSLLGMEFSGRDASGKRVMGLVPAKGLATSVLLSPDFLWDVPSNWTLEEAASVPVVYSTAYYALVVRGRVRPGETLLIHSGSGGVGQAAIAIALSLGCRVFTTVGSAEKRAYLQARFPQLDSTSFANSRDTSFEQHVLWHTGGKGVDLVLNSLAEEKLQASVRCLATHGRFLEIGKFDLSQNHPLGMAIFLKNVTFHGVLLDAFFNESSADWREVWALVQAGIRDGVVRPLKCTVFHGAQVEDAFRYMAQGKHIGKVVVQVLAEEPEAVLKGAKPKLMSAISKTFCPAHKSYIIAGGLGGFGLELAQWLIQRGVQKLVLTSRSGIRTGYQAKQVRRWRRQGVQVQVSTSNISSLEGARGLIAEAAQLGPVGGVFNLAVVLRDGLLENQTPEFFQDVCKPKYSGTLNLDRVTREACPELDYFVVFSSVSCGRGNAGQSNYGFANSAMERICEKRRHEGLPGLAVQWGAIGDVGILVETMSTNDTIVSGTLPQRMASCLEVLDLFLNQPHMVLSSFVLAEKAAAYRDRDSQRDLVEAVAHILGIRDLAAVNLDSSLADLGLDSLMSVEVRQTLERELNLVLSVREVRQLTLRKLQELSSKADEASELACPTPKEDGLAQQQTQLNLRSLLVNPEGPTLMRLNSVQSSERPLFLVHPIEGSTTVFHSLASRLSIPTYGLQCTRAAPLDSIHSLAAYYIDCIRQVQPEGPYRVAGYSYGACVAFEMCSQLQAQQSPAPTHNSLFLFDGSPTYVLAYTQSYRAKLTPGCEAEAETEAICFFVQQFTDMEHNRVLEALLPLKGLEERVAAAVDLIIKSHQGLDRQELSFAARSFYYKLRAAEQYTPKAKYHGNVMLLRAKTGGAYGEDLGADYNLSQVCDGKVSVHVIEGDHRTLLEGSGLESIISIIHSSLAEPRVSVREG

| Compound | EC50 [3] | EC50 [4] | EC50 [5] | GI50 [6] | GI50 ([7]; Mus musculus, P388/ADR) | GI50 ([8]; Mus musculus, P388) | other results |
| --- | --- | --- | --- | --- | --- | --- | --- |
| N#C[C@@H]1[C@H](c2ccccc2C2=CCCCC2)[C@@H](CO)N1S(=O)(=O)c1ccccc1 | – | – | – | – | – | – | AC50 [1]: 15 µM (active) |
| CCC(C(=O)Nc1cccc(S(=O)(=O)N(C)c2ccccc2)c1)c1ccccc1 (configuration not stated) | – | – | – | – | – | – | IC50 [2]: > 100 µM (inactive) |
| Cc1ccc(Cn2nc(C)cc2C(=O)Nc2ccccc2Cl)cc1 | 33.9 µM (active) | 1.49 µM (active) | 21.3 µM (active) | – | – | – | – |
| NC(=O)c1csc(C2OC(CO)C(O)C2O)n1 (configuration not stated) | – | – | – | 77.8 µM (inactive) | 1.79 µM (inactive) | 1.86 µM (inactive) | – |
| CC[C@](C)(O)C(=O)O[C@H]1C(=O)O[C@@H]2C[C@H]3C(C)=CC(=O)[C@@H](O)[C@]3(C)[C@H]3[C@@]4(O)OC[C@]32[C@@H]1[C@@H](C)[C@H]4O [GLAUCARUBINONE] | – | – | – | 0.05 µM (active) | 0.664 µM (active) | 0.0676 µM (active) | – |
| O=[N+]([O-])c1ccc2c(c1)nc1n2CCN(C2CCCCC2)C1 | – | 17.6 µM (active) | 80.8 µM (active) | – | – | – | – |
| Cc1c(-c2ccc(-c3ccccc3F)cc2)nc2ccc(F)cc2c1C(=O)O [BREQUINAR SODIUM] | – | – | – | 0.0902 µM (active) | 0.197 µM (active) | 0.359 µM (active) | – |
| Cc1cccn2c(O)c(C(=O)NC3CCCCC3)c(=O)nc12 | > 120 µM (not active) | > 120 µM (not active) | > 120 µM (not active) | – | – | – | – |
| CCOC(=O)c1ccc(-c2ccc(/C=N/NC(=O)CN(c3ccccc3Cl)S(C)(=O)=O)o2)cc1 | 33.3 µM (active) | 14.3 µM (active) | 28.6 µM (active) | – | – | – | EC50 [9]: 37.6 µM (active); EC50 [10]: 29.4 µM (active) |
| CC(=O)c1ccc(N2CCN(S(=O)(=O)c3ccc(-c4cnc(C5CC5)o4)cc3)CC2)cc1 | – | – | – | – | – | – | IC50 [11]: 11.6 µM (active); AC50 [12]: 20.8 µM (active); AC50 [13]: 38.7 µM (active); IC50 [14]: 24.4 µM (inactive); AC50 [15]: 5.95 µM (active) |
| C=C1CC(OC)(C(O)C(=O)N[C@H]2OCO[C@H]3C2O[C@H](C[C@H](O)COC)C(C)(C)C3OC)O[C@H](C)[C@@H]1C (some centres not stated) | – | – | – | < 0.00773 µM (active) | < 0.00773 µM (active) | < 0.00773 µM (active) | – |
| Nc1ncn(C2OC(CO)C(O)C2O)c(=O)n1 (configuration not stated) | – | – | – | – | 0.393 µM (active) | 0.348 µM (active) | GI50 [7]: 0.489 µM (active); GI50 [8]: 0.452 µM (active) |
| CC(C(=O)N1CCN(C)CC1)N1C(=O)c2ccccc2C1=O (configuration not stated) | – | – | – | – | – | – | IC50 [2]: > 100 µM (inactive) |
| CCCCSc1nc(O)c(C(=O)OCC)cc1C#N | – | – | – | – | – | – | IC50 [2]: > 100 µM (inactive) |
| CC1(C)CC(=O)c2sc(N3CCCCC3)nc2C1 | 74 µM (active) | 8.85 µM (active) | 68.7 µM (active) | – | – | – | – |
| Cc1cc(C)n(CC(O)COc2ccc3ccccc3c2)n1 (configuration not stated) | 31.3 µM (active) | 16.4 µM (active) | 16.5 µM (active) | – | – | – | – |
| CC(=O)Nc1ccc(S(=O)(=O)N2CCN=C2SCc2ccc(C)cc2)cc1 | 8.96 µM (active) | 45 µM (active) | 48.2 µM (active) | – | – | – | EC50 [16]: > 150 µM (not active); EC50 [17]: > 150 µM (not active); EC50 [18]: > 150 µM (not active) |
| N#CC(OC1OC(COC2OC(CO)C(O)C(O)C2O)C(O)C(O)C1O)c1ccccc1 (configuration not stated) | – | – | – | > 225 µM (inactive) | > 225 µM (inactive) | > 225 µM (inactive) | – |
| C/C=C/c1ccc([C@@H]2[C@H](CO)N(CC3CCCC3)C23CN(C(=O)CC2CC2)C3)cc1 | – | – | – | – | – | – | AC50 [1]: 5.78 µM (active) |
| CC1=C(O)C(=O)[C@@H]2O[C@@H]2C1=O | – | – | – | 11.1 µM (inactive) | 1.09 µM (active) | 0.542 µM (active) | – |
